Reference: PubChem BioAssay (NCI)
“And” between values parts separate entries of the source, which are not always exact repeats. Identical values can stand only once.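 How tested: cells in 96-well plates exposed to compound for 48 hours at five concentrations. GI50 = concentration required for 50% inhibition of growth. At the TGI there is no net growth.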

Tests used:
Assay in all cases: NCI-60 cell line screen, 48 h
[1] = test system: 786-0 renal
[2] = test system: A498 renal
[3] = test system: A549 NSCLC
[4] = test system: ACHN renal
[5] = test system: BT-549 breast
[6] = test system: CAKI-1 renal
[7] = test system: CCRF-CEM leukemia
[8] = test system: COLO 205 colon
[9] = test system: DU-145 prostate
[10] = test system: EKVX NSCLC
[11] = test system: HCC-2998 colon
[12] = test system: HCT-116 colon
[13] = test system: HCT-15 colon
[14] = test system: HL-60(TB) leukemia
[15] = test system: HOP-62 NSCLC
[16] = test system: HOP-92 NSCLC
[17] = test system: HS 578T breast
[18] = test system: HT29 colon
[19] = test system: IGROV1 ovarian
[20] = test system: K-562 leukemia
[21] = test system: KM12 colon
[22] = test system: LOX IMVI melanoma
[23] = test system: M14 melanoma
[24] = test system: MALME-3M melanoma
[25] = test system: MCF7 breast
[26] = test system: MDA-MB-231 breast
[27] = test system: MDA-MB-435
[28] = test system: MOLT-4 leukemia
[29] = test system: NCI-H226 lung
[30] = test system: NCI-H23 lung
[31] = test system: NCI-H460 lung
[32] = test system: NCI-H522 lung
[33] = test system: NCI/ADR-RES ovarian
[34] = test system: OVCAR-3 ovarian
[35] = test system: OVCAR-4 ovarian
[36] = test system: OVCAR-5 ovarian
[37] = test system: OVCAR-8 ovarian
[38] = test system: PC-3 prostate
[39] = test system: RPMI-8226 leukemia
[40] = test system: RXF 393 renal
[41] = test system: SF-268 CNS
[42] = test system: SF-295 CNS
[43] = test system: SF-539 CNS
[44] = test system: SK-MEL-2 melanoma
[45] = test system: SK-MEL-28 melanoma
[46] = test system: SK-MEL-5 melanoma
[47] = test system: SK-OV-3 ovarian
[48] = test system: SN12C renal
[49] = test system: SNB-19 CNS
[50] = test system: SNB-75 CNS
[51] = test system: SR leukemia
[52] = test system: SW-620 colon
[53] = test system: T-47D breast
[54] = test system: TK-10 renal
[55] = test system: U251 CNS
[56] = test system: UACC-257 melanoma
[57] = test system: UACC-62 melanoma
[58] = test system: UO-31 renal

For `O=S(=O)(NCCNC/C=C/c1ccc(Br)cc1)c1cccc2cnccc12`, the GI50 [1] was 4.22 µM and 9.27 µM, the TGI [1] was 19.8 µM and 21.9 µM and the GI50 [2] was 8.86 µM and 11.8 µM. The TGI [2] was 23.8 µM and 25.1 µM, the GI50 [3] was 11.3 µM and 13.6 µM and the TGI [3] was 24.9 µM and 27.4 µM. For the same molecule, the GI50 [4] was 10.3 µM and 12.5 µM, the TGI [4] was 22.8 µM and 26.2 µM and the GI50 [5] was 3.09 µM and 7.89 µM. The TGI [5] was 12.7 µM and 21.6 µM, the GI50 [6] was 4.15 µM and 9.99 µM and the TGI [6] was 18 µM and 27 µM. The GI50 [7] was 3.45 µM and 13.3 µM, the TGI [7] was 20.6 µM and 34.2 µM and the GI50 [8] was 2.23 µM and 10.7 µM. The TGI [8] was 4.9 µM and 24.6 µM, the GI50 [9] was 12.4 µM and 14.5 µM and the TGI [9] was 25.1 µM and 27.6 µM. For the same molecule, the GI50 [10] was 5.25 µM and 6.38 µM, the TGI [10] was 22.9 µM and 20.5 µM and the GI50 [11] was 3.18 µM and 3.91 µM. The TGI [11] was 10 µM and 14 µM, the GI50 [12] was 7.6 µM and 11.2 µM and the TGI [12] was 22 µM and 24 µM. The GI50 [13] was 11.2 µM and 11.4 µM, the TGI [13] was 27.3 µM and 25.5 µM and the GI50 [14] was > 24.6 µM and 9.48 µM. For the same molecule, the TGI [14] was > 49.4 µM and 28.1 µM, the GI50 [15] was 7.49 µM and 8.6 µM and the TGI [15] was 21.7 µM and 22.2 µM. For the same molecule, the GI50 [16] was 1.59 µM and 2.8 µM, the TGI [16] was 9.81 µM and 11.8 µM and the GI50 [17] was 4.62 µM and 12 µM. For the same molecule, the TGI [17] was 42 µM and 51.9 µM, the GI50 [18] was 5.44 µM and 13.7 µM and the TGI [18] was 18.9 µM and 28.8 µM. For the same molecule, the GI50 [19] was 6.4 µM and 10.4 µM, the TGI [19] was 23.2 µM and 26.4 µM and the GI50 [20] was 6.63 µM. The TGI [20] was > 36.7 µM and 27.3 µM, the GI50 [21] was 9.78 µM and 13.7 µM and the TGI [21] was 23.3 µM and 28.8 µM. The GI50 [22] was 7.64 µM and 12.1 µM, the TGI [22] was 25.6 µM and 25.2 µM and the GI50 [23] was 12.8 µM and 15.3 µM. For the same molecule, the TGI [23] was 26.4 µM and 30.9 µM, the GI50 [24] was 7.39 µM and 12.7 µM and the TGI [24] was 23 µM and 26.9 µM. For the same molecule, the GI50 [25] was 8.98 µM and 9.53 µM, the TGI [25] was 25.1 µM and 25.4 µM and the GI50 [26] was 8.1 µM and 14.2 µM. The TGI [26] was 21.7 µM and 29.7 µM, the GI50 [27] was 9.22 µM and 12.5 µM and the TGI [27] was 25.2 µM and 25.6 µM. For the same molecule, the GI50 [28] was > 20.4 µM and 7.23 µM, the TGI [28] was > 45 µM and 27.7 µM and the GI50 [29] was 12.3 µM and 13.7 µM. For the same molecule, the TGI [29] was 30.7 µM and 34.5 µM, the GI50 [30] was 11.3 µM and 13.1 µM and the TGI [30] was 25.8 µM and 27.5 µM. The GI50 [31] was 9.76 µM and 15.4 µM, the TGI [31] was 26.2 µM and 31.6 µM and the GI50 [32] was 12.6 µM and 13.7 µM. For the same molecule, the TGI [32] was 26.6 µM and 28.3 µM, the GI50 [33] was 12.3 µM and 14.3 µM and the TGI [33] was 28.8 µM and 32.3 µM. For the same molecule, the GI50 [34] was 12 µM and 14.2 µM, the TGI [34] was 24.6 µM and 28.3 µM and the GI50 [35] was 5.51 µM and 7.36 µM. The TGI [35] was 18.6 µM and 23.6 µM, the GI50 [36] was 13.4 µM and 12.9 µM and the TGI [36] was 27.5 µM and 28 µM. For the same molecule, the GI50 [37] was 13 µM and 15.6 µM, the TGI [37] was 28.5 µM and 32.3 µM and the GI50 [38] was 7.18 µM and 11.2 µM. For the same molecule, the TGI [38] was 21.2 µM and 24.5 µM, the GI50 [39] was 5.2 µM and 12 µM and the TGI [39] was 25.3 µM and 35.2 µM. For the same molecule, the GI50 [40] was 3.37 µM and 9.08 µM, the TGI [40] was 15.6 µM and 22.3 µM and the GI50 [41] was 8.14 µM and 11.1 µM. For the same molecule, the TGI [41] was 22.1 µM and 25.7 µM, the GI50 [42] was 6.47 µM and 11.6 µM and the TGI [42] was 22.9 µM and 25.1 µM. For the same molecule, the GI50 [43] was 7.74 µM and 9.35 µM, the TGI [43] was 21.9 µM and 22.6 µM and the GI50 [44] was 11.2 µM and 16.8 µM. The TGI [44] was 24.4 µM and 34 µM, the GI50 [45] was 7.33 µM and 11.2 µM and the TGI [45] was 20 µM and 25.4 µM. For the same molecule, the GI50 [46] was 6.07 µM and 13.3 µM, the TGI [46] was 19.3 µM and 26.5 µM and the GI50 [47] was 7.26 µM and 11.7 µM. For the same molecule, the TGI [47] was 21.1 µM and 25.1 µM, the GI50 [48] was 7.25 µM and 14.6 µM and the TGI [48] was 21 µM and 31.4 µM. For the same molecule, the GI50 [49] was 13.1 µM and 17.7 µM, the TGI [49] was 27 µM and 34.1 µM and the GI50 [50] was 3.14 µM and 1.85 µM. For the same molecule, the TGI [50] was 14.7 µM and 13.5 µM, the GI50 [51] was 13.6 µM and the TGI [51] was > 40.9 µM and 34.6 µM. The GI50 [52] was 12.6 µM and 16.8 µM, the TGI [52] was 27.6 µM and 32.4 µM and the GI50 [53] was 3.93 µM and 6.45 µM. The TGI [53] was 18.4 µM and 26 µM, the GI50 [54] was 5.92 µM and 10.3 µM and the TGI [54] was 19.6 µM and 23 µM. The GI50 [55] was 9.55 µM and 13.8 µM, the TGI [55] was 23.9 µM and 26.7 µM and the GI50 [56] was 7.83 µM and 14.3 µM. The TGI [56] was 20.8 µM and 27.5 µM, the GI50 [57] was 9.35 µM and 14.5 µM and the TGI [57] was 22.2 µM and 30.2 µM. The GI50 [58] was 4.8 µM and 5.17 µM and the TGI [58] was 18.4 µM and 20.2 µM.
